Measured values: patent publication US8575183B2, “Heterocyclic compounds and their uses” (priority 2010, dated 2013)
pKi: −log10 of the molar value. Several values for one entry are separate records, joined by “and”; a condition that tells them apart may be missing. Equal values may be shown once.

Target: T1, PI3k δ (Homo sapiens, UniProt O00329)
T1 construct: Full length p110 subunits of PI3k α, β and δ; polyHis (N); made in house; host or cells: Sf9 insect cells (baculovirus)
Experiment: biochemical
Type: biochemical
Details: read-out: PI3k δ Ki
Experimental: Full length p110 subunits of PI3k α, β and δ, N-terminally labeled with polyHis tag, were coexpressed with p85 with Baculo virus expression vectors in sf9 insect cells. P110/p85 heterodimers were purified by sequential Ni-NTA, Q-HP, Superdex-100 chromatography. Purified α, β and δ isozymes were stored at −20° C. in 20 mM Tris, pH 8, 0.2M NaCl, 50% glycerol, 5 mM DTT, 2 mM Na cholate. […] The γ isozyme was purified by sequential Ni-NTA, Superdex-200, Q-HP chromatography. The γ isozyme was stored frozen at −80° C. in NaH2PO4, pH 8, 0.2M NaCl, 1% ethylene glycol, 2 mM β-mercaptoethanol.
Phospatidyl inositol phosphoacceptor, Ptdlns(4,5)P2 P4508, was from Echelon Biosciences. […] Test compounds were dissolved in dimethyl sulfoxide and diluted with three-fold serial dilutions. The compound in DMSO (1 μL) was added per test well, and the inhibition relative to reactions containing no compound, with and without enzyme was determined. After assay incubation at rt, the reaction was stopped and residual ATP determined by addition of an equal volume of a commercial ATP bioluminescence kit (Perkin Elmer EasyLite) according to the manufacturer's instructions, and detected using a AnalystGT luminometer.

T1 sequence (O00329 whole entry): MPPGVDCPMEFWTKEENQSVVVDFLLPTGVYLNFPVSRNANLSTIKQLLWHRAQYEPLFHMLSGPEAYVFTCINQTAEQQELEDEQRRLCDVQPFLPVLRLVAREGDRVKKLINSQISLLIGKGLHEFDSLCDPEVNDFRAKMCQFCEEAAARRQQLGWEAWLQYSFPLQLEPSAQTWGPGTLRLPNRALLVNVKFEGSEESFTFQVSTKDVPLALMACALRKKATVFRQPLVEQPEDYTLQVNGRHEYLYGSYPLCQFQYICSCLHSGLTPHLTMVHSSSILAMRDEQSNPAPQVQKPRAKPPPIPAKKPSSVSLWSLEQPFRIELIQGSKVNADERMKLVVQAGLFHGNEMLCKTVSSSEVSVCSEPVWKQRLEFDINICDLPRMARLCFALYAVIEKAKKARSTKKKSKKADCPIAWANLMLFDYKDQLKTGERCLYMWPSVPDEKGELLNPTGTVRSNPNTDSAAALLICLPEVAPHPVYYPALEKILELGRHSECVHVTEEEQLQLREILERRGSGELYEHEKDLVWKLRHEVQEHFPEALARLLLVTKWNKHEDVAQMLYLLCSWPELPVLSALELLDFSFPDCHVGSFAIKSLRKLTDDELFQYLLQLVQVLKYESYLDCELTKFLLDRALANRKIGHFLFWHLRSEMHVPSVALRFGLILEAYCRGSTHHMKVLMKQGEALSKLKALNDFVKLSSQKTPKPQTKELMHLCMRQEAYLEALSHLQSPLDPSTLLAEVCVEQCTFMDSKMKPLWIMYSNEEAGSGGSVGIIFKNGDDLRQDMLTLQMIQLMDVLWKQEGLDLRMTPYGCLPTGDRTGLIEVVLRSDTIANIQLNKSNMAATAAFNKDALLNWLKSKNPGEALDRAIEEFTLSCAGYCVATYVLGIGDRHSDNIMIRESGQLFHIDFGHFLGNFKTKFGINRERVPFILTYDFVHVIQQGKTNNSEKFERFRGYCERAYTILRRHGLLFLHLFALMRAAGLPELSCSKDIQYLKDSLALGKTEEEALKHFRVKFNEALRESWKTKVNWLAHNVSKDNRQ
T1 sequence (P27986 whole entry partner): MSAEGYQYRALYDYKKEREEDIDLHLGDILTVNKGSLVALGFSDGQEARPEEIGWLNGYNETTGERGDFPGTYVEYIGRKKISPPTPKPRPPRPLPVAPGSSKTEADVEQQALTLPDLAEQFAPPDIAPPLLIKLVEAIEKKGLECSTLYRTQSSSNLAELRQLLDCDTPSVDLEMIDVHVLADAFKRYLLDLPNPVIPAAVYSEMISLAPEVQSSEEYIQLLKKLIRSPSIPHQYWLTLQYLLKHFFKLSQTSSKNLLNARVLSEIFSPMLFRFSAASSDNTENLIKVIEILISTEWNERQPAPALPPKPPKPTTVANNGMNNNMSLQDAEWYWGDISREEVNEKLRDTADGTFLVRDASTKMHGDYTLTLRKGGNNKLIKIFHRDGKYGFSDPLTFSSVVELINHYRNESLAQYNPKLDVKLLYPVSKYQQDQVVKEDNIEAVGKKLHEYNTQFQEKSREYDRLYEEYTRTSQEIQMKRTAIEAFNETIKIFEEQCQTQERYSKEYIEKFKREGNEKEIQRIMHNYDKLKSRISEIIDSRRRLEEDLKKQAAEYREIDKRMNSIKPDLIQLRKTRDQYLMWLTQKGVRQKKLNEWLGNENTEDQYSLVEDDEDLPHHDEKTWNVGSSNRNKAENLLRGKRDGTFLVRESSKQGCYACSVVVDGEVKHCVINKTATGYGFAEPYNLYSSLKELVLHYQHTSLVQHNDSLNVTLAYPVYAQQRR

SMILES	pKi
C[C@@H](Nc1ncnc(N)c1C#N)c1nc2cc(F)ccc2n1-c1ccccn1 [4-amino-6-(((1R)-1-(5-fluoro-1-(2-pyridinyl)-1H-benzimidazol-2-yl)ethyl)amino)-5-pyrimidinecarbonitrile]	8.15
C[C@H](Nc1ncnc(N)c1C#N)c1nc2ncccn2c1-c1ccccn1 [4-amino-6-(((1S)-1-(3-(2-pyridinyl)imidazo[1,2-a]pyrimidin-2-yl)ethyl)amino)-5-pyrimidinecarbonitrile]	5.80
CNC(=O)c1cccc2nc([C@H](C)Nc3ncnc(N)c3S(C)(=O)=O)n(C3CC3)c12 [2-((1S)-1-((6-amino-5-(methylsulfonyl)-4-pyrimidinyl)amino)ethyl)-1-cyclopropyl-N-methyl-1H-benzimidazole-7-carboxamide]	7.52
CC[C@H](Nc1ncnc(N)c1C#N)c1nc2cccc(S(C)(=O)=O)c2n1Cc1ccc(F)cc1 [4-amino-6-(((1S)-1-(1-(4-fluorobenzyl)-7-(methylsulfonyl)-1H-benzimidazol-2-yl)propyl)amino)-5-pyrimidinecarbonitrile]	7.56
C[C@H](Nc1ncnc(N)c1C#N)c1nc2ccc(F)cc2n1-c1cccc(F)n1 [4-amino-6-(((1S)-1-(6-fluoro-1-(6-fluoro-2-pyridinyl)-1H-benzimidazol-2-yl)ethyl)amino)-5-pyrimidinecarbonitrile]	8.05
CNC(=O)c1cccc2nc([C@H](C)Nc3ncnc(N)c3C#N)n(-c3cncc(F)c3)c12 [2-((1S)-1-((6-amino-5-cyano-4-pyrimidinyl)amino)ethyl)-1-(5-fluoro-3-pyridinyl)-N-methyl-1H-benzimidazole-7-carboxamide]	7.99
C[C@H](Nc1ncnc(N)c1C#N)c1nc2cccnc2n1-c1cc(F)cc(F)c1 [4-amino-6-(((1S)-1-(3-(3,5-difluorophenyl)-3H-imidazo[4,5-b]pyridin-2-yl)ethyl)amino)-5-pyrimidinecarbonitrile]	6.86
CC(Nc1ncnc(N)c1C#N)c1sc2ccccc2c1-c1cc(F)cc(F)c1 (stereo not shown) [4-amino-6-((1-(3-(3,5-difluorophenyl)-1-benzothiophen-2-yl)ethyl)amino)-5-pyrimidinecarbonitrile]	8.48
C[C@H](Nc1ncnc(N)c1C#N)c1nc2cccc(S(C)(=O)=O)c2n1Cc1ccc(F)cc1 [4-amino-6-(((1S)-1-(1-(4-fluorobenzyl)-7-(methylsulfonyl)-1H-benzimidazol-2-yl)ethyl)amino)-5-pyrimidinecarbonitrile]	7.57
CNC(=O)c1cccc(-n2c([C@H](C)Nc3ncnc(N)c3C#N)nc3ccc(F)cc32)c1 [3-(2-((1S)-1-((6-amino-5-cyano-4-pyrimidinyl)amino)ethyl)-6-fluoro-1H-benzimidazol-1-yl)-N-methylbenzamide]	7.74
CNC(=O)c1cccc2nc([C@H](C)Nc3ncnc(N)c3-c3ccc(S(C)(=O)=O)cc3)n(C3CC3)c12 [2-((1S)-1-((6-amino-5-(4-(methylsulfonyl)phenyl)-4-pyrimidinyl)amino)ethyl)-1-cyclopropyl-N-methyl-1H-benzimidazole-7-carboxamide]	7.98
C[C@H](Nc1ncnc(N)c1C#N)c1nc2c(F)cccc2n1-c1cc(F)cc(F)c1 [4-amino-6-(((1S)-1-(1-(3,5-difluorophenyl)-4-fluoro-1H-benzimidazol-2-yl)ethyl)amino)-5-pyrimidinecarbonitrile]	8.19 and 8.68
C[C@H](Nc1ncnc(N)c1C#N)c1nc2cccc(S(C)(=O)=O)c2n1C1CC1 [4-amino-6-(((1S)-1-(1-cyclopropyl-7-(methylsulfonyl)-1H-benzimidazol-2-yl)ethyl)amino)-5-pyrimidinecarbonitrile]	8.55
C[C@@H](Nc1ncnc(N)c1C#N)c1nc2ccc(F)cc2n1-c1cccc(C#N)c1 [4-amino-6-(((1R)-1-(1-(3-cyanophenyl)-6-fluoro-1H-benzimidazol-2-yl)ethyl)amino)-5-pyrimidinecarbonitrile]	6.39
CNC(=O)c1cccc(-n2c([C@@H](C)Nc3ncnc(N)c3C#N)nc3ccc(F)cc32)c1 [3-(2-((1R)-1-((6-amino-5-cyano-4-pyrimidinyl)amino)ethyl)-6-fluoro-1H-benzimidazol-1-yl)-N-methylbenzamide]	5.33
CC[C@H](Nc1ncnc(N)c1C#N)c1nc2cccc(C(F)(F)F)c2n1Cc1ccc(F)cc1 [4-amino-6-(((1S)-1-(1-(4-fluorobenzyl)-7-(trifluoromethyl)-1H-benzimidazol-2-yl)propyl)amino)-5-pyrimidinecarbonitrile]	6.33
C[C@H](Nc1ncnc(N)c1C#N)c1nc2cccc(C(=O)NC(C)(C)C)c2n1C1CC1 [2-((1S)-1-((6-amino-5-cyano-4-pyrimidinyl)amino)ethyl)-N-tert-butyl-1-cyclopropyl-1H-benzimidazole-7-carboxamide]	7.13

SMILES	pKi
C[C@H](Nc1ncnc(N)c1C#N)c1nc2c(F)cccc2n1-c1cncc(F)c1 [4-amino-6-(((1S)-1-(4-fluoro-1-(5-fluoro-3-pyridinyl)-1H-benzimidazol-2-yl)ethyl)amino)-5-pyrimidinecarbonitrile]	7.33
C[C@H](Nc1ncnc2[nH]cnc12)c1nc2ccc(F)cc2n1-c1cccc(F)c1 [N-((1S)-1-(6-fluoro-1-(3-fluorophenyl)-1H-benzimidazol-2-yl)ethyl)-9H-purin-6-amine]	8.57
C[C@H](Nc1ncnc(N)c1C#N)c1nc2ccc(Cl)cc2n1-c1cc(F)cc(F)c1 [4-amino-6-(((1S)-1-(6-chloro-1-(3,5-difluorophenyl)-1H-benzimidazol-2-yl)ethyl)amino)-5-pyrimidinecarbonitrile]	8.57
CNC(=O)c1cccc2nc([C@H](C)Nc3ncnc(N)c3C#N)n(C3CC3)c12 [2-((1S)-1-((6-amino-5-cyano-4-pyrimidinyl)amino)ethyl)-1-cyclopropyl-N-methyl-1H-benzimidazole-7-carboxamide]	8.15
C[C@@H](Nc1ncnc(N)c1C#N)c1nc2ccc(F)cc2n1-c1cccc(F)n1 [4-amino-6-(((1R)-1-(6-fluoro-1-(6-fluoro-2-pyridinyl)-1H-benzimidazol-2-yl)ethyl)amino)-5-pyrimidinecarbonitrile]	6.12
C[C@H](Nc1ncnc(N)c1C#N)c1nc2c(S(C)(=O)=O)cccc2n1C1CCCC1 [4-amino-6-(((1S)-1-(1-cyclopentyl-4-(methylsulfonyl)-1H-benzimidazol-2-yl)ethyl)amino)-5-pyrimidinecarbonitrile]	5.84
C[C@H](Nc1ncnc(N)c1C#N)c1nc2cccc(C#N)c2n1-c1cncc(F)c1 [2-((1S)-1-((6-amino-5-cyano-4-pyrimidinyl)amino)ethyl)-1-(5-fluoro-3-pyridinyl)-1H-benzimidazole-7-carbonitrile]	6.77
CNC(=O)c1cccc2nc([C@H](C)Nc3ncnc(N)c3C(F)(F)F)n(C3CC3)c12 [2-((1S)-1-((6-amino-5-(trifluoromethyl)-4-pyrimidinyl)amino)ethyl)-1-cyclopropyl-N-methyl-1H-benzimidazole-7-carboxamide]	7.43
C[C@H](Nc1ncnc(N)c1C#N)c1nc2ccccn2c1-c1ccc(Cl)cc1 [4-amino-6-(((1S)-1-(3-(4-chlorophenyl)imidazo[1,2-a]pyridin-2-yl)ethyl)amino)-5-pyrimidinecarbonitrile]	7.13
C[C@H](Nc1ncnc(N)c1C#N)c1nc2cccc(S(C)(=O)=O)c2n1Cc1cc(F)cc(F)c1 [4-amino-6-(((1S)-1-(1-(3,5-difluorobenzyl)-7-(methylsulfonyl)-1H-benzimidazol-2-yl)ethyl)amino)-5-pyrimidinecarbonitrile]	6.53
C[C@H](Nc1ncnc(N)c1C#N)c1nc2cccc(F)c2n1C1CC1 [4-amino-6-(((1S)-1-(1-cyclopropyl-7-fluoro-1H-benzimidazol-2-yl)ethyl)amino)-5-pyrimidinecarbonitrile]	7.91
COC(=O)c1cccc2nc([C@H](C)Nc3ncnc(N)c3C#N)c(-c3cccnc3)n12 [methyl 2-((1S)-1-((6-amino-5-cyano-4-pyrimidinyl)amino)ethyl)-3-(3-pyridinyl)imidazo[1,2-a]pyridine-5-carboxylate]	6.83
CC[C@H](Nc1ncnc2[nH]cnc12)c1nc2cccc(C(F)(F)F)c2n1CC1CC1 [N-((1S)-1-(1-(cyclopropylmethyl)-7-(trifluoromethyl)-1H-benzimidazol-2-yl)propyl)-9H-purin-6-amine]	7.00
C[C@@H](Nc1ncnc(N)c1C#N)c1nc2cc(F)ccc2n1-c1cncc(F)c1 [4-amino-6-(((1R)-1-(5-fluoro-1-(5-fluoro-3-pyridinyl)-1H-benzimidazol-2-yl)ethyl)amino)-5-pyrimidinecarbonitrile]	5.55
CNC(=O)c1cccc2nc([C@H](C)Nc3ncnc(N)c3C#N)c(-c3cncc(F)c3)n12 [2-((1S)-1-((6-amino-5-cyano-4-pyrimidinyl)amino)ethyl)-3-(5-fluoro-3-pyridinyl)-N-methylimidazo[1,2-a]pyridine-5-carboxamide]	7.09
C[C@H](Nc1ncnc2[nH]cnc12)c1nc2ccc(F)cc2n1-c1cncc(F)c1 [N-((1S)-1-(6-fluoro-1-(5-fluoro-3-pyridinyl)-1H-benzimidazol-2-yl)ethyl)-9H-purin-6-amine]	8.42
CC(Nc1ncnc(N)c1C#N)c1sc2ccccc2c1-c1ccccc1 (stereo not shown) [4-amino-6-((1-(3-phenyl-1-benzothiophen-2-yl)ethyl)amino)-5-pyrimidinecarbonitrile]	8.58
